Data as given in PubChem BioAssay AID248 (DTP/NCI, 2004).
Where “and” joins values, the source holds several entries; their conditions need not be identical. Equal entries are not always repeated. Toxic doses and inconclusive results are not listed. No stated cut-off is given here; in the data, active means T/C of 150% or more; inactive means T/C below 125%.

Tested on: L1210 leukemia ip in BDF1 mice, survival T/C
Assay: NCI In Vivo Anticancer Drug Screen. Data for tumor model L1210 Leukemia (intraperitoneal) in B6D2F1 (BDF1) mice
Conditions: endpoint: mean survival time, higher = longer survival
Summary of the method: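 Transplanted-tumor mice were given test agent; controls received vehicle only. Survival readings from the two groups were divided (treated over control).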

[1] = dose: 100.0 mg/kg/injection, schedule: Q04DX003 (ip), vehicle: saline
[2] = dose: 200.0 mg/kg/injection, schedule: Q04DX003 (ip), vehicle: saline
[3] = dose: 100.0 mg/kg/injection, schedule: Q01DX001 (ip), vehicle: saline
[4] = dose: 200.0 mg/kg/injection, schedule: Q01DX001 (ip), vehicle: saline
[5] = dose: 400.0 mg/kg/injection, schedule: Q01DX001 (ip), vehicle: saline
[6] = dose: 100.0 mg/kg/injection, schedule: Q01DX009 (ip), vehicle: saline with Tween-80
[7] = dose: 200.0 mg/kg/injection, schedule: Q01DX009 (ip), vehicle: saline with Tween-80
[8] = dose: 100.0 mg/kg/injection, schedule: Q04DX003 (ip), vehicle: Klucel (hydroxypropylcellulose) (HPC)
[9] = dose: 200.0 mg/kg/injection, schedule: Q04DX003 (ip), vehicle: Klucel (hydroxypropylcellulose) (HPC)
[10] = dose: 400.0 mg/kg/injection, schedule: Q04DX003 (ip), vehicle: Klucel (hydroxypropylcellulose) (HPC)
[11] = dose: 50.0 mg/kg/injection, schedule: Q01DX009 (ip), vehicle: saline
[12] = dose: 100.0 mg/kg/injection, schedule: Q01DX009 (ip), vehicle: saline
[13] = dose: 200.0 mg/kg/injection, schedule: Q01DX009 (ip), vehicle: saline
[14] = dose: 100.0 mg/kg/injection, schedule: Q01DX009 (ip), vehicle: Klucel (hydroxypropylcellulose) (HPC)
[15] = dose: 200.0 mg/kg/injection, schedule: Q01DX009 (ip), vehicle: Klucel (hydroxypropylcellulose) (HPC)

Measured: T/C

CC1=CC(=O)[C@@H](O)[C@]2(C)[C@H]3[C@@]4(O)OC[C@]35[C@H]([C@@H](C)[C@H]4O)[C@@H](OC(=O)c3ccccc3)C(=O)O[C@@H]5C[C@@H]12
inactive: dose: 0.25 mg/kg/injection, schedule: Q01DX009 (ip), vehicle: saline with Tween-80 102 % of control | dose: 0.5 mg/kg/injection, schedule: Q01DX009 (ip), vehicle: saline with Tween-80 103 % of control | dose: 1.0 mg/kg/injection, schedule: Q01DX009 (ip), vehicle: saline with Tween-80 103 % of control | dose: 2.0 mg/kg/injection, schedule: Q01DX009 (ip), vehicle: saline with Tween-80 108 % of control | dose: 4.0 mg/kg/injection, schedule: Q01DX009 (ip), vehicle: saline with Tween-80 111 % of control

CC(C)(C)c1cccc(C(C)(C)C)c1OC(=O)NS(=O)(=O)c1ccccc1
inactive: dose: 12.5 mg/kg/injection, schedule: Q01DX009 (ip), vehicle: acetone 98 % of control | dose: 25.0 mg/kg/injection, schedule: Q01DX009 (ip), vehicle: acetone 94 % of control | dose: 50.0 mg/kg/injection, schedule: Q01DX009 (ip), vehicle: acetone 91 % of control | dose: 75.0 mg/kg/injection, schedule: Q01DX009 (ip), vehicle: Klucel (hydroxypropylcellulose) (HPC) 96 % of control | dose: 115.0 mg/kg/injection, schedule: Q01DX009 (ip), vehicle: Klucel (hydroxypropylcellulose) (HPC) 98 % of control

CCSC(C(O)C(O)C(O)CO)n1ccc(=O)[nH]c1=O (configuration not stated)
inactive: dose: 100.0 mg/kg/injection, schedule: Q01DX005 (ip), vehicle: saline 97 % of control | dose: 200.0 mg/kg/injection, schedule: Q01DX005 (ip), vehicle: saline 93 % of control

COc1ccc2nc3cc(Cl)ccc3c(NCCO)c2c1
inactive: dose: 75.0 mg/kg/injection, schedule: Q01DX001 (ip), vehicle: Klucel (hydroxypropylcellulose) (HPC) 100 % of control | dose: 100.0 mg/kg/injection, schedule: Q01DX001 (ip), vehicle: carboxymethylcellulose (CMC) 100 % of control | [1] 96 % of control | dose: 150.0 mg/kg/injection, schedule: Q01DX001 (ip), vehicle: Klucel (hydroxypropylcellulose) (HPC) 96 % of control | dose: 200.0 mg/kg/injection, schedule: Q01DX001 (ip), vehicle: carboxymethylcellulose (CMC) 100 % of control | [2] 96 % of control | dose: 300.0 mg/kg/injection, schedule: Q01DX001 (ip), vehicle: Klucel (hydroxypropylcellulose) (HPC) 96 % of control | dose: 400.0 mg/kg/injection, schedule: Q01DX001 (ip), vehicle: carboxymethylcellulose (CMC) 108 % of control | dose: 400.0 mg/kg/injection, schedule: Q04DX003 (ip), vehicle: saline 89 % of control

CC(=O)CC(=O)Nc1ccc(Cc2ccc(Br)cc2)cc1
inactive: [3] 96 % of control | [4] 95 % of control | [5] 91 % of control

Cc1c(Cl)cccc1N=C=S
inactive: dose: 75.0 mg/kg/injection, schedule: Q01DX001 (ip), vehicle: saline 95 % of control | dose: 150.0 mg/kg/injection, schedule: Q01DX001 (ip), vehicle: saline 97 % of control | dose: 300.0 mg/kg/injection, schedule: Q01DX001 (ip), vehicle: saline 100 % of control

Oc1ccc(Sc2ccc(O)cc2)cc1
inactive: [1] 101 % of control | [2] 92 % of control

Oc1ccc2ccccc2c1Cc1cccc2ccccc12
inactive: [6] 90 % of control | [7] 95 % of control

COc1ccc(NC(=O)Oc2ccc(-c3ccccc3)cc2Br)cc1
inactive: [8] 96 % of control | [9] 96 % of control | [10] 92 % of control

COC(Cl)C(Cl)(Cl)Cl (configuration not stated)
inactive: [11] 93 % of control | dose: 100.0 mg/kg/injection, schedule: Q01DX001 (ip), vehicle: acetone 103 % of control | [12] 88 % of control | [1] 103 % of control | dose: 200.0 mg/kg/injection, schedule: Q01DX001 (ip), vehicle: acetone 90 % of control | [13] 91 % of control | [2] 100 % of control | dose: 400.0 mg/kg/injection, schedule: Q01DX001 (ip), vehicle: acetone 92 % of control

CC1CN=C(c2ccc(Br)cc2)O1 (configuration not stated)
inactive: [6] 105 % of control | [7] 89 % of control

CCC(C)c1ccccc1OC(=O)Nc1ccc(OC)cc1 (configuration not stated)
inactive: dose: 50.0 mg/kg/injection, schedule: Q01DX009 (ip), vehicle: Klucel (hydroxypropylcellulose) (HPC) 105 % of control | [14] 92 % of control | [8] 96 % of control | [15] 95 % of control | [9] 94 % of control | [10] 100 % of control

CC(=O)C(Br)C(C)=O.CC(=O)C(Br)C(C)=O.CC(=O)C(Br)C(C)=O.[Rh]
inactive: dose: 50.0 mg/kg/injection, schedule: Q01DX001 (ip), vehicle: other 97 % of control | dose: 100.0 mg/kg/injection, schedule: Q01DX001 (ip), vehicle: other 96 % of control | dose: 200.0 mg/kg/injection, schedule: Q01DX001 (ip), vehicle: other 94 % of control | dose: 400.0 mg/kg/injection, schedule: Q01DX001 (ip), vehicle: other 94 % of control

CC1(C)OC2C(C=O)OC(n3cnc4c(N)ncnc43)C2O1 (configuration not stated)
inactive: dose: 100.0 mg/kg/injection, schedule: Q04DX003 (ip), vehicle: alcohol 102 % of control | dose: 200.0 mg/kg/injection, schedule: Q04DX003 (ip), vehicle: alcohol 102 % of control | dose: 400.0 mg/kg/injection, schedule: Q04DX003 (ip), vehicle: alcohol 96 % of control

O=C(OCCN1CCCC1)C(c1ccccc1)C1(O)CCCC1 (configuration not stated)
inactive: dose: 25.0 mg/kg/injection, schedule: Q01DX009 (ip), vehicle: saline 103 % of control | dose: 25.0 mg/kg/injection, schedule: Q04DX003 (ip), vehicle: saline 104 % of control | [11] 102 % of control | dose: 50.0 mg/kg/injection, schedule: Q04DX003 (ip), vehicle: saline 101 % of control | [12] 117 % of control | [1] 96 % of control and 97 % of control

COc1ccccc1NC(=O)CSC(N)=O
inactive: dose: 75.0 mg/kg/injection, schedule: Q## X000 (ip), vehicle: carboxymethylcellulose (CMC) 100 % of control | dose: 125.0 mg/kg/injection, schedule: Q## X000 (ip), vehicle: carboxymethylcellulose (CMC) 105 % of control | dose: 175.0 mg/kg/injection, schedule: Q## X000 (ip), vehicle: carboxymethylcellulose (CMC) 100 % of control | dose: 200.0 mg/kg/injection, schedule: Q01DX Z (ip), vehicle: carboxymethylcellulose (CMC) 104 % of control | dose: 400.0 mg/kg/injection, schedule: Q01DX Z (ip), vehicle: carboxymethylcellulose (CMC) 105 % of control

OCCCNc1nc2ccccc2c2ccccc12
inactive: [12] 102 % of control | [8] 94 % of control | [13] 100 % of control | [9] 102 % of control | [10] 100 % of control

O=C(Nc1cccc2ccccc12)Oc1ccccc1Cc1ccccc1
inactive: [8] 93 % of control | [9] 93 % of control | [10] 96 % of control

O=C(O)CC(c1ccccc1)c1ccccc1
inactive: [14] 98 % of control | [8] 94 % of control | [15] 97 % of control | [9] 107 % of control | dose: 400.0 mg/kg/injection, schedule: Q01DX009 (ip), vehicle: Klucel (hydroxypropylcellulose) (HPC) 109 % of control | [10] 107 % of control

CC(C)(C)N1CC(C(=O)c2ccccc2)C1c1ccc([N+](=O)[O-])cc1 (configuration not stated)
inactive: [8] 96 % of control | [9] 104 % of control

CCOC(=O)CNNC(=O)C(O)C(O)C(O)C(O)CO (configuration not stated)
inactive: [3] 87 % of control | [4] 100 % of control | [5] 100 % of control
